The results in this text go back to patent US20190151283A1, “NON-STEROIDAL SELECTIVE GLUCOCORTICOID RECEPTOR AGONISTIC MODULATORS (SEGRAMs) AND USES THEREOF” (ASSOCIATION POUR LA RECHERCHE À L'IGBMC (ARI), priority 2017, published 2019).

Common to all, as to assay type: in vivo, mouse
Series [1] concerns B6 male mice. Description: Fatty liver after three-month treatment. To be noted: three months; for transcripts of fatty acid synthase (FASN) and Stearoyl-CoA desaturase 1 (SCD1) in liver: q-RT-PCR, 'but not' = no increase; for blood cholesterol and bile acids' levels: 'but not' = no clear increase. On the procedure:
B6 male mice (8-week-old) were daily subjected for three months to a subcutaneous injection of either vehicle (NaCl 0.9%), Dex, CpdX, CpdX(eA), CpdX(eB), CpdX-D3, CpdX-D3(eA) or CpdX-D3(eB) (1 mg/kg body weight, diluted in vehicle). Following this treatment, blood was collected at 10 a.m. by retro-orbital puncture in lithium-heparin coated vials. The plasmatic levels of total cholesterol and bile acids were determined.
Liver samples were harvested. […] RNA transcripts were extracted from liver samples and the transcripts of fatty acid synthase (FASN) and Stearoyl-CoA desaturase 1 (SCD1) genes were analyzed by q-RT-PCR.

Series [2] has as its system Balb/C mice. The series is described as follows: Skin atrophy after 8-day topical treatment of dorsal skin. To be noted: for epidermal thickness: morphometric analysis; for transcription of the REDD1 gene in dorsal skin: topical 8 days, 1 nmole/cm^2, 'but not' = not increased. The source says: To investigate whether, similarly to Dex, a topical administration of CpdX could result in a skin atrophy, Balb/C mice were shaved on the dorsal skin. Ethanol (vehicle), Dex, CpdX or either one of its two enantiomers CpdX(eA) or CpdX(eB), as well as the deuterated form CpdX-D3 or either one of its two enantiomers CpdX-D3(eA) or CpdX-D3(eB), were topically applied onto the dorsal skin for 8 days.
Upon completion of the treatments, RNA transcripts were extracted from dorsal skin samples and the transcripts of Kindlin-1 and REDD1 genes were analyzed by q-RT-PCR. Histological and morphometric analyses of the dorsal skin were also performed.

The subject of series [3] is B6 male mice. The series is described as follows: Bone formation after three-month treatment (micro-CT, WNT16 transcripts). To be noted: s.c. 1 mg/kg daily, three months. Here is the method:
B6 male mice (8-week-old) were daily subjected for three months to either a subcutaneous injection of vehicle (NaCl 0.9%), Dex, CpdX, CpdX(eA), CpdX(eB), CpdX-D3, CpdX-D3(eA) or CpdX-D3(eB) (1 mg/kg body weight, diluted in NaCl 0.9%).
From each animal included in the experiments, one femur and the ipsilateral tibia were dissected and preserved in 70% ethanol for further bone microstructure analysis by micro-CT. The FX Quantum micro-CT scanner (Perkin Elmer) was used to perform measurements at the distal femur and midshaft tibia. All scans were performed with an isotropic voxel size of 10 μm, 160 μA tube current and 90 kV tube voltage.
Morphological 3D measurements were performed using the CTAn software (Bruker). Cortical bone parameters, which were measured in the tibia midshaft, included measures of the bone volume fraction as compared to the total volume, cortical thickness, total area, bone area and marrow area. The region of interest was selected from below the distal tibial crest and continued for 20 slices toward the proximal end of the tibia. Trabecular bone parameters were measured in the distal metaphysis of the femurs and included bone volume fraction, trabecular thickness, trabecular number and trabecular spacing. The region of interest was selected from below the distal growth plate where the epiphyseal cap structure completely disappeared and continued for 100 slices toward the proximal end of the femur.
The statistical significance as compared to vehicle treatment was calculated through one-way ANOVA test followed by Dunn's multiple comparison test, *p<0.05; **p<0.01; ***p<0.001; ****p<0.0001.

Series [4] concerns B6 male mice. The series is described as follows: Insulin level, insulin tolerance test and liver insulin signalling after three-month treatment. To be noted: for insulin resistance: three months, conclusion. Here is the method:
B6 male mice (8-week-old) were subjected daily for three months to a subcutaneous injection of either vehicle (NaCl 0.9%), Dex, CpdX, CpdX(eA), CpdX(eB), CpdX-D3, CpdX-D3(eA) or CpdX-D3(eB) (1 mg/kg body weight, diluted in vehicle). After three months, the blood was collected at 10 a.m. by retro-orbital puncture in lithium-heparin coated vials, and the plasmatic level of insulin was determined.
For the intraperitoneal insulin tolerance test (IPITT), mice were fasted for 6 hours before test. The blood glucose concentration was measured both before (T0) and during a one-hour period after insulin i.p. injection (0.75 U/kg body weight).
Following this three-month treatment, liver samples were harvested and lysed in the RIPA buffer (20 mM Tris pH 8, 150 mM NaCl, 10% glycerol, 1% NP-40 and 2 mM EDTA). Antibodies from Cell Signaling were used to assess by Western-Blotting the relative level of p-IRS1 (S318), IRS-1, p-AKT (S473) and AKT.

The subject of series [5] is Balb/C mice. Description: Dextran sodium sulfate (DSS)-induced ulcerative colitis. The note with it: for pro-inflammatory genes overexpressed in DSS-induced ulcerative colitis (IL-1β, IL-6, IL-17a, IL-17f, TSLP, MMP13): colon, q-RT-PCR, D14; for colonic villus/crypt structure / mucosal and submucosal cell infiltration: i.p. 1 mg/kg on D11, D12, D13, H&E histology. Here is the method: To investigate the anti-inflammatory activity of CpdX and CpdX-D3 on a Th17 ulcerative colitis, Balb/C mice were treated with 3% DSS in drinking water for 13 days, with or without an intraperitoneal administration of either Dex, CpdX, CpdX(eA), CpdX(eB), CpdX-D3, CpdX-D3(eA) or CpdX-D3(eB) (1 mg/kg of body weight) on D11, D12 and D13.
At D14, RNA transcripts were extracted from mouse colons. IL-1β, IL-6, IL-17a, IL-17f, TSLP and MMP13 transcripts were analyzed by q-RT-PCR. Colon samples were also harvested for histological analyses (with H&E staining).

Series [6] has as its system B6 male mice. Description: Organ weights (thymus, spleen, adrenal gland, kidney) after three-month treatment. To be noted: s.c. 1 mg/kg daily, three months. Here is the method:
B6 male mice (8-week-old) were daily subjected for three months to a subcutaneous injection of either vehicle (NaCl 0.9%), Dex, CpdX, CpdX(eA), CpdX(eB), CpdX-D3, CpdX-D3(eA) or CpdX-D3(eB) (1 mg/kg body weight, diluted in vehicle). Following these treatments, four organs (thymus, spleen, adrenal gland and kidney) were harvested and weighted.

For `[2H]C([2H])([2H])Oc1ccc(F)cc1C(C)(C)CC(O)(CNc1ccc2c(c1)COC2=O)C(F)(F)F` (stereo not drawn) [CpdX-D3(eB), 5-{4-[2-(methoxy-D3)-5-fluorophenyl]-2-hydroxy-4-methyl-2-(trifluoromethyl)pentylamino}isobenzofuran-1(3H)-one], in the series on B6 male mice [1], the “transcripts of fatty acid synthase (FASN) and Stearoyl-CoA desaturase 1 (SCD1) in liver” value (from here on “transcripts of fatty acid synthase”) is given as “but not”; the “blood cholesterol and bile acids' levels” value is given as “but not”. For the same molecule, the epidermal thickness result in the series with Balb/C mice [2] (eight-day topical treatment) is on record as “not significantly decreased”. In the series with Balb/C mice [2], the “transcription of the REDD1 gene in dorsal skin” value (“transcription of the REDD1 gene” for short) is recorded as “but not”. Further, in the series with B6 male mice [3], the “bone formation in cortical and trabecular bones” value (from here on “bone formation”) is listed as “did not affect”. Further, the insulin resistance result in the series on B6 male mice [4] is “does not induce”. Moreover, in the series on Balb/C mice [5], the “pro-inflammatory genes overexpressed in DSS-induced ulcerative colitis (IL-1β, IL-6, IL-17a, IL-17f, TSLP, MMP13)” value (“pro-inflammatory genes overexpressed” for short) is listed as “similarly repressed”; the colonic villus/crypt structure entry is on record as “almost reestablished”; the “mucosal and submucosal cell infiltration” value is listed as “significantly decreased”. In the series with B6 male mice [6], the spleen weight result was “not decreased”, the “thymus apoptosis / thymus found” value is on record as “did not result in any significant thymus apoptosis” and the “weight of the adrenal gland” value is “increased”.
In the case of `COc1ccc(F)cc1C(C)(C)CC(O)(CNc1ccc2c(c1)COC2=O)C(F)(F)F` (single isomer, unassigned) [CpdX(eA), 5-[4-(5-fluoro-2-methoxyphenyl)-2-hydroxy-4-methyl-2-(trifluoromethyl)pentylamino]-isobenzofuran-1(3H)-one], in the series with B6 male mice [1], the “transcripts of fatty acid synthase” value is “but not”; the “blood cholesterol and bile acids' levels” value is on record as “but not”. In addition, the epidermal thickness result in the series with Balb/C mice [2] (eight-day topical treatment) is listed as “not significantly decreased”. The “transcription of the REDD1 gene” value with Balb/C mice [2] is “but not”. Further, the “bone formation” value in the series with B6 male mice [3] was “did not affect”. Also, the insulin resistance entry in the series on B6 male mice [4] is “does not induce”. Further, in the series with Balb/C mice [5], the “pro-inflammatory genes overexpressed” value was “similarly repressed”; the colonic villus/crypt structure entry is “almost reestablished”; the “mucosal and submucosal cell infiltration” value is given as “significantly decreased”. In addition, in the series with B6 male mice [6], the spleen weight result is “not decreased”, the “thymus apoptosis / thymus found” value is given as “did not result in any significant thymus apoptosis” and the “weight of the adrenal gland” value is “increased”.
As to `COc1ccc(F)cc1C(C)(C)CC(O)(CNc1ccc2c(c1)COC2=O)C(F)(F)F` (single isomer, unassigned) [CpdX(eB), 5-[4-(5-fluoro-2-methoxyphenyl)-2-hydroxy-4-methyl-2-(trifluoromethyl)pentylamino]-isobenzofuran-1(3H)-one], in the series with B6 male mice [1], the “transcripts of fatty acid synthase” value is recorded as “but not”; the “blood cholesterol and bile acids' levels” value is listed as “but not”. Also, the epidermal thickness result in the series on Balb/C mice [2] (eight-day topical treatment) is listed as “not significantly decreased”. Besides, the “transcription of the REDD1 gene” value with Balb/C mice [2] is “but not”. In the series on B6 male mice [3], the “bone formation” value was “did not affect”. The insulin resistance result with B6 male mice [4] is listed as “does not induce”. For the same molecule, in the series with Balb/C mice [5], the “pro-inflammatory genes overexpressed” value is given as “similarly repressed”; the colonic villus/crypt structure entry is on record as “almost reestablished”; the “mucosal and submucosal cell infiltration” value was “significantly decreased”. In the series with B6 male mice [6], the spleen weight result was “not decreased”, the “thymus apoptosis / thymus found” value was “did not result in any significant thymus apoptosis” and the “weight of the adrenal gland” value is given as “increased”.
Consider `[2H]C([2H])([2H])Oc1ccc(F)cc1C(C)(C)CC(O)(CNc1ccc2c(c1)COC2=O)C(F)(F)F` (racemic) [CpdX-D3, 5-{4-[2-(methoxy-D3)-5-fluorophenyl]-2-hydroxy-4-methyl-2-(trifluoro-methyl)pentylamino}isobenzofuran-1(3H)-one], for which the “lipid deposition in the liver” value with B6 male mice [1] (5% Red oil staining of frozen sections) is on record as “not observed”. For the same molecule, in the series on B6 male mice [1], the “transcripts of fatty acid synthase” value was “but not”; the “blood cholesterol and bile acids' levels” value is “but not”. In addition, the epidermal thickness result in the series with Balb/C mice [2] (eight-day topical treatment) was “not significantly decreased”. The “skin atrophy, histological analysis” value in the series on Balb/C mice [2] (eight-day topical treatment, 'in marked contrast' = no severe atrophy as with Dex) is on record as “in marked contrast”. Besides, the “transcription of the REDD1 gene” value in the series with Balb/C mice [2] is recorded as “but not”. The “bone formation” value with B6 male mice [3] is given as “did not affect”. For the same molecule, the insulin resistance result in the series with B6 male mice [4] is “does not induce”. In addition, the “phosphorylated insulin receptor substrate 1 (p-IRS1 S318) in liver extracts” value with B6 male mice [4] (western-blot, 'but not' = no decrease) was “but not”. Moreover, in the series on Balb/C mice [5], the “pro-inflammatory genes overexpressed” value is “similarly repressed”; the colonic villus/crypt structure result was “almost reestablished”; the “mucosal and submucosal cell infiltration” value was “significantly decreased”. Moreover, in the series on B6 male mice [6], the spleen weight entry is listed as “not decreased”, the “thymus apoptosis / thymus found” value is listed as “did not result in any significant thymus apoptosis” and the “weight of the adrenal gland” value was “increased”.
As to `[2H]C([2H])([2H])Oc1ccc(F)cc1C(C)(C)CC(O)(CNc1ccc2c(c1)COC2=O)C(F)(F)F` (stereo not drawn) [CpdX-D3(eA), 5-{4-[2-(methoxy-D3)-5-fluorophenyl]-2-hydroxy-4-methyl-2-(trifluoromethyl)pentylamino}isobenzofuran-1(3H)-one], in the series with B6 male mice [1], the “transcripts of fatty acid synthase” value was “but not”; the “blood cholesterol and bile acids' levels” value is reported as “but not”. Moreover, the epidermal thickness result with Balb/C mice [2] (eight-day topical treatment) is “not significantly decreased”. For the same molecule, in the series on Balb/C mice [2], the “transcription of the REDD1 gene” value is “but not”. Further, the “bone formation” value in the series on B6 male mice [3] is “did not affect”. Besides, the insulin resistance entry in the series with B6 male mice [4] is recorded as “does not induce”. Besides, in the series on Balb/C mice [5], the “pro-inflammatory genes overexpressed” value is listed as “similarly repressed”; the colonic villus/crypt structure entry was “almost reestablished”; the “mucosal and submucosal cell infiltration” value is recorded as “significantly decreased”. For the same molecule, in the series on B6 male mice [6], the spleen weight entry is reported as “not decreased”, the “thymus apoptosis / thymus found” value is recorded as “did not result in any significant thymus apoptosis” and the “weight of the adrenal gland” value is listed as “increased”.
